Test results: patent publication EP0552417B1, “Cyclic peptides and use thereof” (priority 1991, dated 1993)
pIC50: −log10 of the molar value. Like-named read-outs stand apart in the source and are kept apart here. Non-standard residues stand in square brackets, D forms with d. Residues, ends and D or L forms follow the SMILES beside them. Groups on a side chain read outwards from the residue. *: point of attachment. NHPhenethyl = c1ccc(CCN*)cc1; Aze = O=C(O)[C@@H]1CCN1; X2 = c1ccc2c(c1)CCN2*; NHBn = c1ccc(CN*)cc1

Assays:
[1] = target: T1, endothelin receptor A (ETA) (Sus scrofa, UniProt Q29010); assay: Assay of affinity for receptor (1): binding activity on ETA receptor, 125I-labeled endothelin-1, porcine heart membrane fraction; design: key: relative specific activity; reference cyclic pentapeptide ETA binding = 1.0; conditions: specific activity, taking the binding activity of control cyclo[-D-Glu-Ala-D-aIle-Leu-D-Trp-] on receptor A as 1.0, 25°C, 1 hour
T1 construct: A membrane fraction prepared from the porcine heart; from tissue; host or cells: porcine heart membrane fraction
T1 sequence (Q29010 21-427): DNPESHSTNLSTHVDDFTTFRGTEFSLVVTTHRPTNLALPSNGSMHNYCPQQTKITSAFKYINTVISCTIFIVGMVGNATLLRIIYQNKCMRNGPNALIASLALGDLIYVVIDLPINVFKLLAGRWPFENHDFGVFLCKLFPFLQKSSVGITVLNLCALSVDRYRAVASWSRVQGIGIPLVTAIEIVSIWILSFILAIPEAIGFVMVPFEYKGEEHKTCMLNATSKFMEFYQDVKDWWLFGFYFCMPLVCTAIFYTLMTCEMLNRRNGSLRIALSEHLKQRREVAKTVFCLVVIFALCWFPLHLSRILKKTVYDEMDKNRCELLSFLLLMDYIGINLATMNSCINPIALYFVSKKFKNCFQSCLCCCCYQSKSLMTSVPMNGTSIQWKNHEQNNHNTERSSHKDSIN
In short: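 Porcine heart membranes (0.15 mg/ml) incubated with 125I-endothelin-1 and test peptide for 1 h at 25°C, then centrifuged; pellet-bound radioactivity counted by gamma counter. Values given as specific activity relative to reference cyclo[-D-Glu-Ala-D-aIle-Leu-D-Trp-], set at 1.0.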

[2] = target: T2, NK2 receptor (Bos taurus, UniProt P05363); assay: Assay of affinity for receptor (3): binding inhibiting activity on NK2 receptor, 125I-neurokinin A, membrane fraction of bovine third stomach inner wall; conditions: 125I-NKA, 25°C, 3 hours
T2 construct: The membrane fraction containing the receptor was prepared from the inner wall of the bovine third stomach; tissue Kyoto Chuo Chikusan Fukuseibutsu Oroshi Kyoukai (tissue); host or cells: inner wall of bovine third stomach, membrane fraction
T2 sequence (P05363 1-384): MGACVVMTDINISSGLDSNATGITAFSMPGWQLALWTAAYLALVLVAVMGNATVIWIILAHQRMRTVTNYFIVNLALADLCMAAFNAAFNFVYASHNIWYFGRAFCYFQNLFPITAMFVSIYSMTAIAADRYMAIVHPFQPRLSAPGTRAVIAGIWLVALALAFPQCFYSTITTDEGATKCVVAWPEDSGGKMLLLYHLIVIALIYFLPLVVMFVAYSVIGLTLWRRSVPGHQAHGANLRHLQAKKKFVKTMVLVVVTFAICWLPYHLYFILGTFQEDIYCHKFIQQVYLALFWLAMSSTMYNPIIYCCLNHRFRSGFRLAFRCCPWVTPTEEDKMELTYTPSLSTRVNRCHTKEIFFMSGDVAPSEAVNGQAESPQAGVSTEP
Description: Assay of Affinity for Receptor (3) ... Binding Inhibiting Activity on NK2 Receptor
The method of Paul L. M. Van Giersbergen et al. [Proc. Natl. Acad. Sci. U.S.A., 88, 1661 (1991) was modified for this assay. The membrane fraction containing the receptor was prepared from the inner wall of the bovine third stomach (purchased from Kyoto Chuo Chikusan Fukuseibutsu Oroshi Kyoukai).
The inner wall of the bovine third stomach stored at-80°C was cut to 1 cm X 1 cm or less, and disrupted in 3 liters/kg of 50 mM Tris-HCl buffer (pH 7.4) supplemented with 120 mM sodium chloride, 5 mM potassium chloride, 0.02% BSA and 5% sucrose, using a polytron homogenizer (Kinematika, Germany). Then, the disrupted product was centrifuged at 1,000 X g for 10 minutes. The supernatant was further centrifuged at 45,000 X g for 20 minutes. The precipitate was suspended in 200 ml of 50 mM Tris-HCl buffer (pH 7.4) supplemented with 300 mM potassium chloride, 10 mM ethylenediaminetetraacetic acid, 0.1 mM phenylmethylsulfonium fluoride and 0.02% BSA, and gently stirred under ice cooling for 60 minutes. The suspension was centrifuged at 45,000 X g for 20 minutes. The precipitate was washed with 200 ml of 50 mM Tris-HCl buffer (pH 7.4), and stored in the frozen state at -40°C as a receptor sample.
This sample was suspended in a reaction buffer solution [50 mM Tris-HCl buffer (pH 7.4), 0.02% bovine serum albumin and 4 mM manganese chloride] so as to give a protein concentration of 0.7 mg/ml, and 100 µl thereof was used for reaction. A test sample and ^125I-NKA (0.61 KBq, ^125I-neurokinin A, 81.4 TBq/mmol, Du Pont/NEN Research Products, U.S.A.) were also added, and reacted in 0.2 ml of the reaction buffer solution at 25°C for 3 hours. The reaction mixture was rapidly filtered through a glass filter (GF/B, Whatman, U.S.A.) using a cell harvester (Type 290PHD, Cambridge Technology Inc.) to terminate the reaction, and washed 3 times with 250 µl of 50 mM Tris-HCl buffer (pH 7.4) supplemented with 0.02% bovine serum albumin. The radioactivity left on the filter was measured with a gamma-ray counter. Results are shown in Table 1 as the binding inhibiting activity (IC50, unit: µM) on the NK2 receptor.

[3] = system: ETB; assay: ETB radio receptor assay *2, 125I-endothelin-1, guinea pig kidney crude membrane fraction; type: binding, Guinea pigs; conditions: relative activity, 37 °C, 90 minutes
In short: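 Radioligand binding used crude guinea pig kidney membranes (2.1 µg protein) with 740 Bq 125I-endothelin-1. Incubation was 90 min at 37 °C in 50 mM Tris-HCl pH 7.4, 0.1 mM PMSF, 1 mM EDTA, 0.2% BSA. Bound radioactivity was collected by GF/B filtration and measured by gamma counting.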

[4] = amide bond, DCC/HONB (active ester), TEA, DMF, 16.0 h, 4 steps
[5] = target: T3, endothelin receptor B (ETB) (Bos taurus, UniProt P28088); assay: Assay of affinity for receptor (2): binding activity on ETB receptor *1, 125I-labeled endothelin-1, bovine brain membrane fraction; conditions: specific activity, taking the binding activity of the compound of Example 8 on receptor B as 100, 25°C, 1 hour
T3 construct: A membrane fraction prepared from the bovine brain; from tissue; host or cells: bovine brain membrane fraction
T3 sequence (P28088 27-441): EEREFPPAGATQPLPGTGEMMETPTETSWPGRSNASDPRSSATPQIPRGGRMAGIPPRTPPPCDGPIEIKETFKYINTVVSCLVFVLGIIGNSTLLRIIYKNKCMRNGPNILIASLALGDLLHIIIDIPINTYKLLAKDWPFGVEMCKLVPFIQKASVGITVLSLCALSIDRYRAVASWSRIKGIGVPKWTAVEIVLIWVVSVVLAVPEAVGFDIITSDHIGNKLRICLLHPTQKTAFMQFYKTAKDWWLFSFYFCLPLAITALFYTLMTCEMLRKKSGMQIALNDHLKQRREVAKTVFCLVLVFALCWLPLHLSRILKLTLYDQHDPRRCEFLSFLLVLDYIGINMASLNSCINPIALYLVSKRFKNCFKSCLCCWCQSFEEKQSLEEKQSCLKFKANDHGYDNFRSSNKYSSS
Description: Assay of Affinity for Receptor (2) ... Binding Activity on ETB Receptor *1
A membrane fraction prepared from the bovine brain was diluted to 0.15 mg/ml by using a buffer solution for assay, and 100 µl of the resulting suspension of the membrane fraction was poured into each assay tube to use for assay. To this suspension of the membrane fraction was added 2 µl of 5 nM ^125I labeled endothelin-1 solution. Further, 3 µl of a test peptide solution was added thereto, followed by incubation at a temperature of 25°C for 1 hour. Then, the resulting suspension was diluted with 900 µl of the buffer solution for assay cooled with ice, and thereafter separated into a supernatant and a precipitate by centrifugation at 12,000 X g for 10 minutes. Cell membranes and an endothelin receptor B (ETB) embedded therein were contained in the precipitate, and radioactive iodine-labeled endothelin bound to the receptor was also recovered in the precipitate. Accordingly, the amount of radioactive iodine-labeled endothelin bound to the endothelin receptor B (ETB) was determined by measuring the amount of radioactive iodine contained in the precipitate with a gamma-ray counter. The numerical value of ETB shown in Table 1 is the value of specific activity, taking the binding activity of the compound of Example 8 on the receptor B as 100.

Row | Binding Activity on ET Receptor (R. act.) ETA [1] | pIC50 [2] | Binding Activity on ET Receptor (R. act.) ETB*2 [3] | SMILES | further results
1 | 4.0 | 5.59 | 7.7 | CC(C)C[C@@H]1NC(=O)[C@H](CC(=O)O)NC(=O)[C@@H](CC(=O)O)NC(=O)[C@@H](Cc2c[nH]c3ccccc23)NC(=O)[C@H](CC(C)C)NC(=O)[C@@H](CC(C)C)NC1=O [Example 32, Cyclo[-D-Asp-Asp-Leu-D-Leu-Leu-D-Trp-]] (cyclo(DL[dL]L[dW][dD])) | 
2 |  |  |  | CC(C)C[C@@H]1NC(=O)[C@@H](c2cccs2)NC(=O)[C@H](CC(=O)O)NC(=O)[C@@H]2C[C@@H](OCc3ccccc3)CN2C(=O)[C@@H](CC(=O)O)NC(=O)[C@@H](Cc2c[nH]c3ccccc23)NC1=O [cyclo[-D-Asp-Hyp(Bzl)-Asp-D-Thg(2)-Leu-D-Trp-]] | ring closure, yield of all isomers ([4]; from CC(C)C[C@H](NC(=O)[C@H](NC(=O)OC(C)(C)C)c1cccs1)C(=O)N[C@H](Cc1c[nH]c2ccccc12)C(=O)N[C@H](CC(=O)OCc1ccccc1)C(=O)N1C[C@H](OCc2ccccc2)C[C@H]1C(=O)N[C@@H](CC(=O)OCc1ccccc1)C(=O)O, 4.98 mM): 5.7%
3 |  |  |  | CC(C)C[C@@H]1NC(=O)[C@@H](c2cccs2)NC(=O)[C@H](CC(=O)O)NC(=O)[C@H](CCC(=O)NCc2ccccc2)NC(=O)[C@@H](CC(=O)O)NC(=O)[C@@H](Cc2c[nH]c3ccccc23)NC1=O [cyclo[-D-Asp-Gln(Bzl)-Asp-D-Thg(2)-Leu-D-Trp-]] | ring closure, yield of all isomers ([4]; from CC(C)C[C@H](NC(=O)[C@H](NC(=O)OC(C)(C)C)c1cccs1)C(=O)N[C@H](Cc1c[nH]c2ccccc12)C(=O)N[C@H](CC(=O)OCc1ccccc1)C(=O)N[C@@H](CCC(=O)NCc1ccccc1)C(=O)N[C@@H](CC(=O)OCc1ccccc1)C(=O)O, 5.06 mM): 8.8%
4 | 2.9 | 6.46 | 5.6 | CC(C)C[C@@H]1NC(=O)[C@@H](CC(C)C)NC(=O)[C@H](Cc2c[nH]c3ccccc23)NC(=O)[C@H](CC(=O)O)NC(=O)[C@@H](CC(=O)O)NC(=O)[C@@H](Cc2c[nH]c3ccccc23)NC1=O [Example 33, Cyclo[-D-Asp-Asp-Trp-D-Leu-Leu-D-Trp-]] (cyclo(DW[dL]L[dW][dD])) | 
5 |  | 5.40 |  | CC(C)C[C@@H]1NC(=O)[C@@H](CC(C)C)NC(=O)[C@H](CC(=O)O)NC(=O)[C@H](CC(=O)N[C@@H](Cc2c[nH]c3ccccc23)C(=O)NCc2ccccc2)NC(=O)[C@@H](CC(=O)O)NC(=O)[C@@H](Cc2c[nH]c3ccccc23)NC1=O [Example 92, Cyclo[-D-Asp-Asp(Trp-NHBzl)-Asp-D-Leu-Leu-D-Trp-]] (cyclo(D([Trp-NHBn])D[dL]L[dW][dD])) | 
6 | 10 |  | 34 | CC(C)C[C@@H]1NC(=O)[C@@H](CC(C)C)NC(=O)[C@H](CC(=O)O)NC(=O)[C@H](CC(=O)O)NC(=O)[C@@H](CC(=O)O)NC(=O)[C@@H](Cc2c[nH]c3ccccc23)NC1=O [Example 16, Cyclo[-D-Asp-Asp-Asp-D-Leu-Leu-D-Trp-]] (cyclo(DD[dL]L[dW][dD])) | Binding Activity on ET Receptor (R. act.) ETB*1 [5]: 14
7 | 30 |  | 57 | CC(C)C[C@@H]1NC(=O)[C@@H](CC(C)C)NC(=O)[C@H](CC(=O)O)NC(=O)[C@@H]2CCN2C(=O)[C@@H](CC(=O)O)NC(=O)[C@@H](Cc2c[nH]c3ccccc23)NC1=O [Example 25, Cyclo[-D-Asp-Azc-Asp-D-Leu-Leu-D-Trp-]] (cyclo([Aze]D[dL]L[dW][dD])) | Binding Activity on ET Receptor (R. act.) ETB*1 [5]: 25

Row | SMILES | Binding Activity on ET Receptor (R. act.) ETA [1] | pIC50 [2] | Binding Activity on ET Receptor (R. act.) ETB*2 [3] | further results
8 | CC(C)C[C@@H]1NC(=O)[C@@H](CC(C)C)NC(=O)[C@H](CC(=O)O)NC(=O)[C@H](CC(=O)N[C@@H](Cc2c[nH]c3ccccc23)C(=O)NCCc2ccccc2)NC(=O)[C@@H](CC(=O)O)NC(=O)[C@@H](Cc2c[nH]c3ccccc23)NC1=O [Example 94, Cyclo[-D-Asp-Asp(Trp-NHCH2CH2Ph)-Asp-D-Leu-Leu-D-Trp-]] (cyclo(D([Trp-NHPhenethyl])D[dL]L[dW][dD])) |  | 5.24 |  | 
9 | CC(C)C[C@@H]1NC(=O)[C@@H](CC(C)C)NC(=O)[C@H](CC(=O)O)NC(=O)[C@H](CCC(=O)N2CCc3ccccc32)NC(=O)[C@@H](CC(=O)O)NC(=O)[C@@H](Cc2c[nH]c3ccccc23)NC1=O [Example 76, Cyclo[-D-Asp-Glu(R3)-Asp-D-Leu-Leu-D-Trp-]] (cyclo(D[dL]L[dW][dD]E(X2))) |  | 5.00 |  | 
